From patent US20090062223A1, “AMINO TRICYCLIC-NUCLEOSIDE COMPOUNDS, COMPOSITIONS, AND METHODS OF USE” (GENELABS TECHNOLOGIES, INC., priority 2007, published 2009) come the findings set out here.

Converted amounts (≈) assume the structure as drawn. Where only a bound is given, the exact number is not on record here.

One may read the solubility as the dissolved amount per volume that the medium holds. A higher solubility goes with a readily soluble substance.

One data set has as its system Caco-2 cells. The experiment in a line: in vitro. It counts as in vitro ADME. How it is done:
Caco-2 cells were maintained in Dulbecco's Modification of Eagle's Medium (DMEM) with sodium pyruvate, Glutmax supplemented with 1% Pen/Strep, 1% NEAA and 10% fetal bovine serum in an incubator set at 37° C., 90% humidity and 5% CO2. Caco-2 cells between passage 43 and 61 were grown to confluence over at least 21-days on 24 well PET (polyethylene-terephthalate) plates (BD Biosciences). Experiments were run using a new HBSS donor buffer from Invitrogen containing additional 10 mM HEPES, 15 mM Glucose with pH adjusted to pH 6.5. The receiver well used HBSS buffer supplemented with 1% BSA and the pH adjusted to pH 7.4. After an initial equilibration with transport buffer, TEER values were read to test membrane integrity. The experiment was started by the addition of buffers containing test compounds and 100 μl of solution is taken at 1 and 2 hrs from the receiver compartment. Removed buffer was replaced with fresh buffer and a correction was applied to all calculations for the removed material. Each compound was tested in 2 separate replicate wells for each condition. All samples were immediately collected into 400 μl 100% acetonitrile acid to precipitate protein and stabilize test compounds. Cells were dosed on the apical or basolateral side to determine forward (A to B) and reverse (B to A) permeability. Permeability through a cell free trans-well was also determined as a measure of cellular permeability through the membrane and non-specific binding. To test for non-specific binding and compound instability the total amount of drug was quantitated at the end of the experiment and compared to the material present in the original dosing solution as a percent recovery. Samples were analyzed by LC/MS/MS.
The apparent permeability, Papp, and % recovery were calculated as follows: […]
where, • dR/dt is the slope of the cumulative concentration in the receiver compartment versus time in μM/s based on receiver concentrations measured at 60 and 120 minute. • Vr and Vd is the volume in the receiver and donor compartment in cm^3, respectively. • A is the area of the cell monolayer (0.33 cm^2). • D0 and D120 is the measured donor concentration at the beginning and end of the experiment, respectively. • R120 is the receiver concentration at the end of the experiment (120 minutes).
The apparent permeability for certain compounds were determined using the above procedure.

Data set [1] in a line: Chemical stability in acidic solution (acid stability). It counts as physicochemical. Conditions: pH 4.5 chemical solution; pH 4.5, 37° C.; read-out: Acid Stability (T ½, mins @ pH 4.5).
Data set [2] can be described thus: Solubility (shaking flask). Conditions: thermodynamic from solid, 37° C. for 24 hours. Type of data set: physicochemical. How it is done: The solubility for certain compounds were determined using the following protocol and procedure. 1) The solution, sterile water or phosphate buffer solution (PBS), was added to the test compound tube to make the final concentration 10 mg/mL. 2) The sample tube was vortexed and incubated at 37° C. for 24 hours. During the incubation period, the sample tube was vortexed several times. 3) After the incubation, vortex the tube and centrifuge the tube at 13,000 rpm for 10 mins using an Eppendorf Centrifuge Model 5415C. If the solution was still cloudy, centrifuge it for longer until a clear supernatant was achieved. 4) The supernatant was diluted to 1×, 10× and 100× in 50% ACN in water. 5) A six point standard curve was prepared separately to make the final concentrations of 1 μg/mL, 5 μg/mL, 10 μg/mL, 20 μg/mL, 40 μg/mL and 60 μg/mL. 6) Samples were quantified using an HPLC with UV detector. 7) From the three concentrations of 1×, 10× and 100× supernatant, choose the value, which was fallen into the standard curve range (1 ug/mL-60 ug/mL), as the final result. If all the results were out of the curve range, adjust using a dilution factor to make the value within the curve range.

Setting [3] is: phosphate buffer solution (PBS), aqueous buffer, PBS.

On to `CCCCCC(=O)OC[C@H]1O[C@@H](n2cc3c4c(ncnc42)NC(=O)C=C3N)[C@@](C)(O)[C@@H]1O` (stereo in doubt) [Compound 101, Hexanoic acid 5-(9-amino-7-oxo-6,7-dihydro-2,3,5,6-tetraaza-benzo[cd]azulen-2-yl)-3,4-dihydroxy-4-methyl-tetrahydro-furan-2-ylmethylester], for which the “Permeability Papp (A to B) × 10^−6 cm/s (Caco-2 A-B)” value (“Permeability Papp” for short) with Caco-2 cells was “high”. For the same compound, in data set [1], the half-life at 1 µg/mL was below 30 min. Moreover, the solubility at 24 h in data set [2] (setting [3]) was determined as 137 µg/mL (≈ 308 µM).
With `CCCCCOC(=O)OC[C@H]1O[C@@H](n2cc3c4c(ncnc42)NC(=O)C=C3N)[C@@](C)(O)[C@@H]1O` (stereo in doubt) [Compound 103, Carbonic acid 5-(9-amino-7-oxo-6,7-dihydro-2,3,5,6-tetraaza-benzo[cd]azulen-2-yl)-3,4-dihydroxy-4-methyl-tetrahydro-furan-2-ylmethylester pentyl ester], in the data set with Caco-2 cells, the “Permeability Papp” value is listed as “low”. For the same compound, the half-life at 1 µg/mL in data set [1] was at most 30 min.
With `CC(C)C(=O)OC[C@H]1O[C@@H](n2cc3c4c(ncnc42)NC(=O)C=C3N)[C@@](C)(O)[C@@H]1O` (stereo in doubt) [Compound 105, Isobutyric acid 5-(9-amino-7-oxo-6,7-dihydro-2,3,5,6-tetraaza-benzo[cd]azulen-2-yl)-3,4-dihydroxy-4-methyl-tetrahydro-furan-2-ylmethylester], in the data set with Caco-2 cells, the “Permeability Papp” value is “high”. Moreover, the half-life at 1 µg/mL in data set [1] is below 30 min. Also, in data set [2] (setting [3]), the solubility at 24 h worked out at 9060 µg/mL (≈ 21700 µM).
The like results for `CC(C)C(=O)OCOC(=O)NC1=CC(=O)Nc2ncnc3c2c1cn3[C@@H]1O[C@H](CO)[C@@H](O)[C@]1(C)O` (stereo in doubt) [Compound 109, Isobutyric acid 2-(3,4-dihydroxy-5-hydroxymethyl-3-methyl-tetrahydro-furan-2-yl)-7-oxo-6,7-dihydro-2H-2,3,5,6-tetraaza-benzo[cd]azulen-9-ylcarbamoyloxymethyl ester] were, in that order, “low”, above 120 min and 215 µg/mL (≈ 437 µM).
Taken in the same sequence, the figures for `CC(C)C(=O)O[C@@H]1[C@@H](CO)O[C@@H](n2cc3c4c(ncnc42)NC(=O)C=C3N)C1(C)O` (stereo in doubt) [Compound 115, Isobutyric acid 5-(9-amino-7-oxo-6,7-dihydro-2,3,5,6-tetraaza-benzo[cd]azulen-2-yl)-4-hydroxy-2-hydroxymethyl-4-methyl-tetrahydro-furan-3-yl ester] were “high”, below 30 min and 134 µg/mL (≈ 321 µM).
The like results for `CC(C)C(=O)OC[C@H]1O[C@@H](n2cc3c4c(ncnc42)NC(=O)C=C3N)[C@@](C)(O)[C@@H]1OC(=O)C(C)C` (stereo in doubt) [Compound 134, Isobutyric acid 5-(9-amino-7-oxo-6,7-dihydro-2,3,5,6-tetraaza-benzo[cd]azulen-2-yl)-4-hydroxy-3-isobutyryloxy-4-methyl-tetrahydro-furan-2-ylmethyl ester] were, in that order, “low”, below 30 min and 67 µg/mL (≈ 137 µM).
As to `CC(=O)OC[C@H]1O[C@@H](n2cc3c4c(ncnc42)NC(=O)C=C3N)[C@@](C)(O)[C@@H]1OC(C)=O` (stereo in doubt) [Compound 135, Acetic acid 3-acetoxy-5-(9-amino-7-oxo-6,7-dihydro-2,3,5,6-tetraaza-benzo[cd]azulen-2-yl)-4-hydroxy-4-methyl-tetrahydro-furan-2-ylmethylester], the “Permeability Papp” value with Caco-2 cells is listed as “medium”. Further, the half-life at 1 µg/mL in data set [1] is below 15 min. The solubility at 24 h in data set [2] (setting [3]) is 7280 µg/mL (≈ 16900 µM).
The like results for `CC1(O)C(O)C(CO)OC1n1cc2c3c(ncnc31)NC(=O)C=C2N` (stereo not shown) [Compound 100, 9-amino-2-(3,4-dihydroxy-5-hydroxymethyl-3-methyl-tetrahydro-furan-2-yl)-2,6-dihydro-2,3,5,6-tetraaza-benzo[cd]azulen-7-one, reference compound] were, in that order, “low”, below 15 min and 11 µg/mL (≈ 31.7 µM).
Taken in the same sequence, the figures for `CC(C)C(=O)OC[C@H]1O[C@@H](n2cc3c4c(ncnc42)NC(=O)C=C3N)[C@@]2(C)OC(=O)O[C@H]12` [Compound 106, Isobutyric acid 6-(9-amino-7-oxo-6,7-dihydro-2,3,5,6-tetraaza-benzo[cd]azulen-2-yl)-6a-methyl-2-oxo-tetrahydro-furo[3,4-d][1,3]dioxol-4-ylmethyl ester] were “high”, below 30 min and 65 µg/mL (≈ 147 µM).
Taken in the same sequence, the figures for `CC(=O)OC[C@H]1O[C@@H](n2cc3c4c(ncnc42)NC(=O)C=C3N)[C@@]2(C)OC(=O)O[C@H]12` [Compound 108, Acetic acid 6-(9-amino-7-oxo-6,7-dihydro-2,3,5,6-tetraaza-benzo[cd]azulen-2-yl)-6a-methyl-2-oxo-tetrahydro-furo[3,4-d][1,3]dioxol-4-ylmethyl ester] were “medium”, below 15 min and 28 µg/mL (≈ 67.4 µM).
Consider `CCCCCC(=O)O[C@@H]1[C@@H](CO)O[C@@H](n2cc3c4c(ncnc42)NC(=O)C=C3N)[C@]1(C)O` [Compound 113, Hexanoic acid 5-(9-amino-7-oxo-6,7-dihydro-2,3,5,6-tetraaza-benzo[cd]azulen-2-yl)-4-hydroxy-2-hydroxymethyl-4-methyl-tetrahydro-furan-3-yl ester], for which the “Permeability Papp” value in the data set on Caco-2 cells was “medium”. In addition, the half-life at 1 µg/mL in data set [1] was below 30 min. In addition, the concentration in solution in data set [2] (setting [3]) (solubility at 24 h) came to 67 µg/mL (≈ 150 µM).
The like results for `CC12OC(=O)O[C@@H]1[C@@H](CO)O[C@H]2n1cc2c3c(ncnc31)NC(=O)C=C2N` (stereo partly shown) [Compound 116, 9-Amino-2-(6-hydroxymethyl-3a-methyl-2-oxo-tetrahydro-furo[3,4-d][1,3]dioxol-4-yl)-2,6-dihydro-2,3,5,6-tetraaza-benzo[cd]azulen-7-one] were, in that order, “low”, below 30 min and 202 µg/mL (≈ 541 µM).
In the case of `CC(=O)N[C@H](C(=O)OC[C@H]1O[C@@H](n2cc3c4c(ncnc42)NC(=O)C=C3N)C(C)(O)[C@@H]1O)C(C)C` (stereo partly shown) [Compound 124, 2-Acetylamino-3-methyl-butyric acid5-(9-amino-7-oxo-6,7-dihydro-2,3,5,6-tetraaza-benzo[cd]azulen-2-yl)-3,4-dihydroxy-4-methyl-tetrahydro-furan-2-ylmethyl ester], the “Permeability Papp” value in the data set on Caco-2 cells is “low”. Besides, in data set [1], the half-life at 1 µg/mL was below 30 min. The compound further displayed a solubility at 24 h in data set [2] (setting [3]) of 6250 µg/mL (≈ 12800 µM).
Consider `CC(C)C(=O)OCOC(=O)NC1=CC(=O)Nc2ncnc3c2c1cn3[C@@H]1O[C@H](COC(=O)C(C)C)[C@@H](O)C1(C)O` (stereo partly shown) [Compound 129, Isobutyric acid 3,4-dihydroxy-5-(9-isobutyryloxymethoxycarbonyl-amino-7-oxo-6,7-dihydro-2,3,5,6-tetraaza-benzo[cd]azulen-2-yl)-4-methyl-tetrahydro-furan-2-ylmethylester], for which the half-life at 1 µg/mL in data set [1] is above 120 min. For the same compound, the solubility at 24 h in data set [2] (sterile water, water) was 120 µg/mL (≈ 214 µM).
Take `CCCCCOC(=O)NC1=CC(=O)Nc2ncnc3c2c1cn3[C@@H]1O[C@H](CO)[C@@H](O)[C@@]1(C)O` [Compound 138, [2-(3,4-Dihydroxy-5-hydroxymethyl-3-methyl-tetrahydro-furan-2-yl)-7-oxo-6,7-dihydro-2H-2,3,5,6-tetraaza-benzo[cd]azulen-9-yl]-carbamic acidpentyl ester]: the “Permeability Papp” value in the data set with Caco-2 cells is recorded as “medium”. Moreover, in data set [1], the half-life at 1 µg/mL was above 120 min. This compound returned a solubility at 24 h in data set [2] (setting [3]) of 32 µg/mL (≈ 69.3 µM).
